From patent US8580794B2 (AbbVie Inc., priority 2009, dated 2013)

Biological target: GST-Bc1-2 (Homo sapiens, UniProt P10415)
Experiment: Time Resolved-Fluorescence Resonance Energy Transfer (TR-FRET) Bcl-2 binding assay with F-Bak peptide probe
Details: GST-Bcl-2 1 nM, F-Bak probe 100 nM, Tb-anti-GST 1 nM; '<' = below limit of detection; read-out: TR-FRET Bcl-2 Binding Ki

GST-Bc1-2, sequence (P10415 whole entry): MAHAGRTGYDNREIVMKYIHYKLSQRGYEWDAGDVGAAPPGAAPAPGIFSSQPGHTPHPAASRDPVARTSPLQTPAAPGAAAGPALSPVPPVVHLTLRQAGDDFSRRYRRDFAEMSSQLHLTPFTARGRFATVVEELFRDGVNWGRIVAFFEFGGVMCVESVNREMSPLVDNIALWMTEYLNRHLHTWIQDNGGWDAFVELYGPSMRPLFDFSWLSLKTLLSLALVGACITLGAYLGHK

**Q.** Which Ki does the source give for `CC1(C)CC(c2ccc(Cl)cc2)=C(CN2CCN(c3ccc(C(=O)NS(=O)(=O)c4ccc(NCC5CCOCC5)c(C(F)(F)F)c4)c(Oc4cnc5[nH]ccc5c4)c3)CC2)CO1` [Example 42, 4-(4-{[4-(4-chlorophenyl)-6,6-dimethyl-5,6-dihydro-2H-pyran-3-yl]methyl}piperazin-1-yl)-2-(1H-pyrrolo[2,3-b]pyridin-5-yloxy)-N-{[4-[(tetrahydro-2H-pyran-4-ylmethyl)amino]-3-(trifluoromethyl)phenyl]sulfonyl}benzamide] here?
**A.** 0.439 nM

**Q.** For `CC1(C)CC(c2ccc(Cl)cc2)=C(CN2CCN(c3ccc(C(=O)NS(=O)(=O)c4ccc(NCC5CCOCC5)c(S(=O)(=O)C(F)(F)F)c4)c(Oc4cnc5[nH]ccc5c4)c3)CC2)CO1` [Example 43, 4-(4-{[4-(4-chlorophenyl)-6,6-dimethyl-5,6-dihydro-2H-pyran-3-yl]methyl}piperazin-1-yl)-2-(1H-pyrrolo[2,3-b]pyridin-5-yloxy)-N-({4-[(tetrahydro-2H-pyran-4-ylmethyl)amino]-3-[(trifluoromethyl)sulfonyl]phenyl}sulfonyl)benzamide], which Ki is on record?
**A.** 0.012 nM

**Q.** For `CC1(C)CC(c2ccc(Cl)cc2)=C(CN2CCN(c3ccc(C(=O)NS(=O)(=O)c4ccc(N[C@H]5CC[C@H](N6CCOCC6)CC5)c(S(=O)(=O)C(F)(F)F)c4)c(Oc4cnc5[nH]ccc5c4)c3)CC2)CO1` [Example 44, Trans-4-(4-{[4-(4-chlorophenyl)-6,6-dimethyl-5,6-dihydro-2H-pyran-3-yl]methyl}piperazin-1-yl)-N-({4-[(4-morpholin-4-ylcyclohexyl)amino]-3-[(trifluoromethyl)sulfonyl]phenyl}sulfonyl)-2-(1H-pyrrolo[2,3-b]pyridin-5-yloxy)benzamide], which Ki is on record?
**A.** < 0.01 nM

**Q.** `CN1CCC(Nc2ccc(S(=O)(=O)NC(=O)c3ccc(N4CCN(CC5=C(c6ccc(Cl)cc6)CC(C)(C)OC5)CC4)cc3Oc3cnc4[nH]ccc4c3)cc2S(=O)(=O)C(F)(F)F)CC1` [Example 45, 4-(4-{[4-(4-chlorophenyl)-6,6-dimethyl-5,6-dihydro-2H-pyran-3-yl]methyl}piperazin-1-yl)-N-({4-[(1-methylpiperidin-4-yl)amino]-3-[(trifluoromethyl)sulfonyl]phenyl}sulfonyl)-2-(1H-pyrrolo[2,3-b]pyridin-5-yloxy)benzamide] was tested. Which Ki did it give?
**A.** < 0.01 nM

**Q.** With `CC1(C)CCC(CN2CCN(c3ccc(C(=O)NS(=O)(=O)c4cnc(OCC5CCOCC5)c(C(N)=O)c4)c(Oc4cnc5[nH]ccc5c4)c3)CC2)=C(c2ccc(Cl)cc2)C1` [Example 46, 5-({[4-(4-{[2-(4-chlorophenyl)-4,4-dimethylcyclohex-1-en-1-yl]methyl}piperazin-1-yl)-2-(1H-pyrrolo[2,3-b]pyridin-5-yloxy)benzoyl]amino}sulfonyl)-2-(tetrahydro-2H-pyran-4-ylmethoxy)nicotinamide] as the molecule, how does the Ki read?
**A.** 0.935 nM

**Q.** Which Ki does the source give for `CN1CCC(COc2ncc(S(=O)(=O)NC(=O)c3ccc(N4CCN(CC5=C(c6ccc(Cl)cc6)CC(C)(C)CC5)CC4)cc3Oc3cnc4[nH]ccc4c3)cc2Br)CC1` [Example 47, N-({5-bromo-6-[(1-methylpiperidin-4-yl)methoxy]pyridin-3-yl}sulfonyl)-4-(4-{[2-(4-chlorophenyl)-4,4-dimethylcyclohex-1-en-1-yl]methyl}piperazin-1-yl)-2-(1H-pyrrolo[2,3-b]pyridin-5-yloxy)benzamide] here?
**A.** < 0.01 nM

**Q.** How did the Ki turn out when `CN1CCC(COc2ccc(S(=O)(=O)NC(=O)c3ccc(N4CCN(CC5=C(c6ccc(Cl)cc6)CC(C)(C)CC5)CC4)cc3Oc3cnc4[nH]ccc4c3)cc2[N+](=O)[O-])CC1` [Example 48, 4-(4-{[2-(4-chlorophenyl)-4,4-dimethylcyclohex-1-en-1-yl]methyl}piperazin-1-yl)-N-({4-[(1-methylpiperidin-4-yl)methoxy]-3-nitrophenyl}sulfonyl)-2-(1H-pyrrolo[2,3-b]pyridin-5-yloxy)benzamide] was run?
**A.** < 0.01 nM

**Q.** With `CC1(C)CCC(CN2CCN(c3ccc(C(=O)NS(=O)(=O)c4cnc(OCC5COCCO5)c(C#N)c4)c(Oc4cnc5[nH]ccc5c4)c3)CC2)=C(c2ccc(Cl)cc2)C1` (stereo not shown) [Example 49, 4-(4-{[2-(4-chlorophenyl)-4,4-dimethylcyclohex-1-en-1-yl]methyl}piperazin-1-yl)-N-{[5-cyano-6-(1,4-dioxan-2-ylmethoxy)pyridin-3-yl]sulfonyl}-2-(1H-pyrrolo[2,3-b]pyridin-5-yloxy)benzamide] as the molecule, how does the Ki read?
**A.** 0.074 nM

**Q.** Which Ki does the source give for `CC1(C)CCC(CN2CCN(c3ccc(C(=O)NS(=O)(=O)c4cnc(OCC5COCCO5)c(Br)c4)c(Oc4cnc5[nH]ccc5c4)c3)CC2)=C(c2ccc(Cl)cc2)C1` (stereo not shown) [Example 50, N-{[5-bromo-6-(1,4-dioxan-2-ylmethoxy)pyridin-3-yl]sulfonyl}-4-(4-{[2-(4-chlorophenyl)-4,4-dimethylcyclohex-1-en-1-yl]methyl}piperazin-1-yl)-2-(1H-pyrrolo[2,3-b]pyridin-5-yloxy)benzamide] here?
**A.** 0.021 nM

**Q.** Which Ki does the source give for `CC1(C)CCC(CN2CCN(c3ccc(C(=O)NS(=O)(=O)c4ccc(OCC5CCOC(C)(C)C5)c([N+](=O)[O-])c4)c(Oc4cnc5[nH]ccc5c4)c3)CC2)=C(c2ccc(Cl)cc2)C1` (stereo not shown) [Example 51, 4-(4-{[2-(4-chlorophenyl)-4,4-dimethylcyclohex-1-en-1-yl]methyl}piperazin-1-yl)-N-({4-[(2,2-dimethyltetrahydro-2H-pyran-4-yl)methoxy]-3-nitrophenyl}sulfonyl)-2-(1H-pyrrolo[2,3-b]pyridin-5-yloxy)benzamide] here?
**A.** < 0.01 nM

**Q.** For `CC1(C)CCC(CN2CCN(c3ccc(C(=O)NS(=O)(=O)c4cc(Cl)c(NCC5CCOCC5)c(C#N)c4)c(Oc4cnc5[nH]ccc5c4)c3)CC2)=C(c2ccc(Cl)cc2)C1` [Example 52, N-({3-chloro-5-cyano-4-[(tetrahydro-2H-pyran-4-ylmethyl)amino]phenyl}sulfonyl)-4-(4-{[2-(4-chlorophenyl)-4,4-dimethylcyclohex-1-en-1-yl]methyl}piperazin-1-yl)-2-(1H-pyrrolo[2,3-b]pyridin-5-yloxy)benzamide], which Ki is on record?
**A.** 0.114 nM

**Q.** `CC(=O)N1CCC(Nc2ccc(S(=O)(=O)NC(=O)c3ccc(N4CCN(CC5=C(c6ccc(Cl)cc6)CC(C)(C)CC5)CC4)cc3Oc3cnc4[nH]ccc4c3)cc2[N+](=O)[O-])CC1` [Example 53, N-({4-[(1-acetylpiperidin-4-yl)amino]-3-nitrophenyl}sulfonyl)-4-(4-{[2-(4-chlorophenyl)-4,4-dimethylcyclohex-1-en-1-yl]methyl}piperazin-1-yl)-2-(1H-pyrrolo[2,3-b]pyridin-5-yloxy)benzamide] was tested. Which Ki did it give?
**A.** < 0.01 nM

**Q.** With `CC1(C)CCC(CN2CCN(c3ccc(C(=O)NS(=O)(=O)c4cc(F)c(NCC5CCOCC5)cc4Cl)c(Oc4cnc5[nH]ccc5c4)c3)CC2)=C(c2ccc(Cl)cc2)C1` [Example 54, N-({2-chloro-5-fluoro-4-[(tetrahydro-2H-pyran-4-ylmethyl)amino]phenyl}sulfonyl)-4-(4-{[2-(4-chlorophenyl)-4,4-dimethylcyclohex-1-en-1-yl]methyl}piperazin-1-yl)-2-(1H-pyrrolo[2,3-b]pyridin-5-yloxy)benzamide] as the molecule, how does the Ki read?
**A.** 2.07 nM

**Q.** Which Ki does the source give for `CC1(C)CCC(CN2CCN(c3ccc(C(=O)NS(=O)(=O)c4ccc(NCCCN5CCOCC5)c([N+](=O)[O-])c4)c(Oc4cnc5[nH]ccc5c4)c3)CC2)=C(c2ccc(Cl)cc2)C1` [Example 55, 4-(4-{[2-(4-chlorophenyl)-4,4-dimethylcyclohex-1-en-1-yl]methyl}piperazin-1-yl)-N-({4-[(3-morpholin-4-ylpropyl)amino]-3-nitrophenyl}sulfonyl)-2-(1H-pyrrolo[2,3-b]pyridin-5-yloxy)benzamide] here?
**A.** < 0.01 nM

**Q.** `CC1(C)CCC(CN2CCN(c3ccc(C(=O)NS(=O)(=O)c4cnc(OCC5(F)CCOCC5)c(C#N)c4)c(Oc4cnc5[nH]ccc5c4)c3)CC2)=C(c2ccc(Cl)cc2)C1` [Example 56, 4-(4-{[2-(4-chlorophenyl)-4,4-dimethylcyclohex-1-en-1-yl]methyl}piperazin-1-yl)-N-({5-cyano-6-[(4-fluorotetrahydro-2H-pyran-4-yl)methoxy]pyridin-3-yl}sulfonyl)-2-(1H-pyrrolo[2,3-b]pyridin-5-yloxy)benzamide] was tested. Which Ki did it give?
**A.** 0.037 nM

**Q.** For `CC1(C)CCC(CN2CCN(c3ccc(C(=O)NS(=O)(=O)c4cnc(OCCN5CCOCC5)c(C#N)c4)c(Oc4cnc5[nH]ccc5c4)c3)CC2)=C(c2ccc(Cl)cc2)C1` [Example 57, 4-(4-{[2-(4-chlorophenyl)-4,4-dimethylcyclohex-1-en-1-yl]methyl}piperazin-1-yl)-N-{[5-cyano-6-(2-morpholin-4-ylethoxy)pyridin-3-yl]sulfonyl}-2-(1H-pyrrolo[2,3-b]pyridin-5-yloxy)benzamide], which Ki is on record?
**A.** 0.063 nM

**Q.** Which Ki does the source give for `COCCOCCS(=O)(=O)c1ccc(S(=O)(=O)NC(=O)c2ccc(N3CCN(CC4=C(c5ccc(Cl)cc5)CC(C)(C)CC4)CC3)cc2Oc2cnc3[nH]ccc3c2)cc1Cl` [Example 58, N-[(3-chloro-4-{[2-(2-methoxyethoxy)ethyl]sulfonyl}phenyl)sulfonyl]-4-(4-{[2-(4-chlorophenyl)-4,4-dimethylcyclohex-1-en-1-yl]methyl}piperazin-1-yl)-2-(1H-pyrrolo[2,3-b]pyridin-5-yloxy)benzamide] here?
**A.** < 0.01 nM

**Q.** For `COCCOCCS(=O)(=O)c1ccc(S(=O)(=O)NC(=O)c2ccc(N3CCN(CC4=C(c5ccc(Cl)cc5)CC(C)(C)CC4)CC3)cc2Oc2cnc3[nH]ccc3c2)cc1[N+](=O)[O-]` [Example 59, 4-(4-{[2-(4-chlorophenyl)-4,4-dimethylcyclohex-1-en-1-yl]methyl}piperazin-1-yl)-N-[(4-{[2-(2-methoxyethoxy)ethyl]sulfonyl}-3-nitrophenyl)sulfonyl]-2-(1H-pyrrolo[2,3-b]pyridin-5-yloxy)benzamide], which Ki is on record?
**A.** 0.203 nM

**Q.** With `CC1(C)CCC(CN2CCN(c3ccc(C(=O)NS(=O)(=O)c4ccc(O[C@H]5CC[C@H](N6CCOCC6)CC5)c([N+](=O)[O-])c4)c(Oc4cnc5[nH]ccc5c4)c3)CC2)=C(c2ccc(Cl)cc2)C1` [Example 60, Trans-4-(4-{[2-(4-chlorophenyl)-4,4-dimethylcyclohex-1-en-1-yl]methyl}piperazin-1-yl)-N-({4-[(4-morpholin-4-ylcyclohexyl)oxy]-3-nitrophenyl}sulfonyl)-2-(1H-pyrrolo[2,3-b]pyridin-5-yloxy)benzamide] as the molecule, how does the Ki read?
**A.** < 0.01 nM
